Our source for the EC50 values is patent US12391679B2, “Benzamide-substituted bicyclic imidazo- and pyrazolo-fused -pyridine, -pyrimide, and -pyridazine compounds for treatment of inflammatory diseases” (ONCO3R Therapeutics BV, priority 2019, dated 2025).

The experiment deals with LPS-induced TNFα in monocytes. As to the kind of experiment: Monocytes assay: LPS-triggered TNFα (ELISA). The format is cell-based, human. The conditions noted are these: LPS-triggered TNFα inhibition. Put shortly:
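TNFα secretion was triggered with 200 ng/mL LPS for 4 h in human blood CD14+ monocytes after 1 h compound pretreatment at 37 °C, with 0.2% final DMSO. Supernatants were analysed by streptavidin-HRP/luminol ELISA, and percentage inhibition at each concentration was derived relative to control wells.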
On the technique in general: In an ELISA, binding on a coated surface is turned into a signal by an enzyme label.

Usually EC50 stands for the concentration giving half of the maximal effect. The low end stands for a more potent agent, the high end for a less potent agent. Regarding `CC[C@](C)(O)c1ccn2c(-c3cc(OC)c(C(=O)NC4CC4)c(OC(F)F)c3)cnc2c1` (single isomer, unassigned) [Cpd 165, N-cyclopropyl-2-(difluoromethoxy)-4-[7-(1-hydroxy-1-methyl-propyl)imidazo[1,2-a]pyridin-3-yl]-6-methoxy-benzamide], the EC50 fell in the range of 100 to 1000 nM.

On to `COc1cc(-c2cnc3cc([C@@](C)(O)C4CC4)ccn23)cc(OC(F)F)c1C(=O)NC1CC1` (single isomer, unassigned) [Cpd 163, N-cyclopropyl-4-[7-(1-cyclopropyl-1-hydroxy-ethyl)imidazo[1,2-a]pyridin-3-yl]-2-(difluoromethoxy)-6-methoxy-benzamide], for which the EC50 fell in the range of 100 to 1000 nM.

On to `COc1cc(-c2cnc3cc(C4COCCN4C)ccn23)cc(OC(F)F)c1C(=O)NC1CC1` (centres unmarked) [Cpd 193, N-cyclopropyl-2-(difluoromethoxy)-6-methoxy-4-[7-(4-methylmorpholin-3-yl)imidazo[1,2-a]pyridin-3-yl]benzamide], for which the EC50 (Homo sapiens, Monocyte) lay within 100 to 1000 nM.

Where the note is “Homo sapiens, Monocyte”, `COc1cc(-c2cnc3cc(C(C)(C)C#N)ccn23)cc(OC(F)F)c1C(=O)N1CC(F)C1` [Cpd 96, 2-[3-[3-(difluoromethoxy)-4-(3-fluoroazetidine-1-carbonyl)-5-methoxy-phenyl]imidazo[1,2-a]pyridin-7-yl]-2-methyl-propanenitrile] showed an EC50 of 100 to 1000 nM.

Compound `COc1cc(-c2cnc3cc(C4(C#N)CCOC4)ccn23)cc(OC(F)F)c1C(=O)NC1CC1` (centres unmarked) [Cpd 123, 4-[7-(3-cyanotetrahydrofuran-3-yl)imidazo[1,2-a]pyridin-3-yl]-N-cyclopropyl-2-(difluoromethoxy)-6-methoxy-benzamide] showed an EC50 (Homo sapiens, Monocyte) of 100 to 1000 nM.

In the case of `COc1cc(-c2cnn3cc(C4(C#N)CC4)ccc23)cc(OC(F)F)c1C(=O)N[C@@H]1C[C@@H]1F` [Cpd 235, 4-[6-(1-cyanocyclopropyl)pyrazolo[1,5-a]pyridin-3-yl]-2-(difluoromethoxy)-N-[(1R,2S)-2-fluorocyclopropyl]-6-methoxy-benzamide], the EC50 (Homo sapiens, Monocyte) was 0.1 to 100 nM.

Consider `COc1cc(-c2cnn3cc(C(C)(C)CO)ccc23)cc(OC(F)F)c1C(=O)NC1CC1` [Cpd 236, N-cyclopropyl-2-(difluoromethoxy)-4-[6-(2-hydroxy-1,1-dimethyl-ethyl)pyrazolo[1,5-a]pyridin-3-yl]-6-methoxy-benzamide], for which, under “Homo sapiens, Monocyte”, the EC50 lay within 100 to 1000 nM.

As to `COc1cc(-c2cnc3cc(C4CCOCC4)c(F)cn23)cc(OC(F)F)c1C(=O)NC1CC1` [Cpd 166, N-cyclopropyl-2-(difluoromethoxy)-4-(6-fluoro-7-tetrahydropyran-4-yl-imidazo[1,2-a]pyridin-3-yl)-6-methoxy-benzamide], for the setting “Homo sapiens, Monocyte”, the EC50 fell in the range of 100 to 1000 nM.

`COc1cc(-c2cnc3cc(C4(C#N)COC4)ccn23)cc(OC(F)F)c1C(=O)N[C@@H]1C[C@@H]1F` [Cpd 130, 4-[7-(3-cyanooxetan-3-yl)imidazo[1,2-a]pyridin-3-yl]-2-(difluoromethoxy)-N-[(1R,2S)-2-fluorocyclopropyl]-6-methoxy-benzamide] returned an EC50 (Homo sapiens, Monocyte) of 100 to 1000 nM.

Turning to `COc1cc(-c2cnn3cc(C(C)(C)C#N)ccc23)cc(OC(F)F)c1C(=O)N[C@@H]1C[C@H]1F` (single isomer, unassigned) [Cpd 258, 4-[6-(1-cyano-1-methyl-ethyl)pyrazolo[1,5-a]pyridin-3-yl]-2-(difluoromethoxy)-N-(2-fluorocyclopropyl)-6-methoxy-benzamide], the EC50 was in the range of 100 to 1000 nM.

Compound `COc1cc(-c2cnc3cc(C(C)(C)C#N)ccn23)cc(OC(F)F)c1C(=O)N1CC(C#N)C1` [Cpd 77, 1-[4-[7-(1-cyano-1-methyl-ethyl)imidazo[1,2-a]pyridin-3-yl]-2-(difluoromethoxy)-6-methoxy-benzoyl]azetidine-3-carbonitrile] registered a 50% effective concentration (EC50) (Homo sapiens, Monocyte) of 100 to 1000 nM.

Compound `COc1cc(-c2cnc3cc(C(C)O)ccn23)cc(OC(F)F)c1C(=O)NC1CC1` (centres unmarked) [Cpd 140, N-cyclopropyl-2-(difluoromethoxy)-4-[7-(1-hydroxyethyl)imidazo[1,2-a]pyridin-3-yl]-6-methoxy-benzamide] had an EC50 (Homo sapiens, Monocyte) of 100 to 1000 nM.

For the compound `COc1cc(-c2cnc3cc(C4(F)COC4)ccn23)cc(OC(F)F)c1C(=O)N[C@@H]1C[C@@H]1F` [Cpd 224, 2-(difluoromethoxy)-N-[(1R,2S)-2-fluorocyclopropyl]-4-[7-(3-fluorooxetan-3-yl)imidazo[1,2-a]pyridin-3-yl]-6-methoxy-benzamide], for the setting “Homo sapiens, Monocyte”, the EC50 was 100 to 1000 nM.

In turn, `COc1cc(-c2cnc3cc(C(C)(C)O)ccn23)cc(OC(F)F)c1C(=O)NC1CC1` [Cpd 35, N-cyclopropyl-2-(difluoromethoxy)-4-[7-(1-hydroxy-1-methyl-ethyl)imidazo[1,2-a]pyridin-3-yl]-6-methoxy-benzamide] registered an EC50 (Homo sapiens, Monocyte) of 100 to 1000 nM.

In the case of `COc1cc(-c2cnn3cc(C4COC4)ccc23)cc(OC(F)F)c1C(=O)NC1CC1` [Cpd 216, N-cyclopropyl-2-(difluoromethoxy)-6-methoxy-4-[6-(oxetan-3-yl)pyrazolo[1,5-a]pyridin-3-yl]benzamide], the 50% effective concentration (EC50) (Homo sapiens, Monocyte) is 100 to 1000 nM.

Regarding `COc1cc(-c2cnc3cc(C4(O)CCC4)ccn23)cc(OC(F)F)c1C(=O)NC1CC1` [Cpd 173, N-cyclopropyl-2-(difluoromethoxy)-4-[7-(1-hydroxycyclobutyl)imidazo[1,2-a]pyridin-3-yl]-6-methoxy-benzamide], the EC50 (Homo sapiens, Monocyte) lay in the range of 100 to 1000 nM.

With `COc1cc(-c2cnc3cc(C(C)(C#N)CO)ccn23)cc(OC(F)F)c1C(=O)NC1CC1` (centres unmarked) [Cpd 176, 4-[7-(1-cyano-2-hydroxy-1-methyl-ethyl)imidazo[1,2-a]pyridin-3-yl]-N-cyclopropyl-2-(difluoromethoxy)-6-methoxy-benzamide], the EC50 (Homo sapiens, Monocyte) lay in the range of 100 to 1000 nM.

Consider `COc1cc(-c2cnc3cc(C(C)(C)CN)ccn23)cc(OC(F)F)c1C(=O)NC1CC1` [Cpd 93, 4-[7-(2-amino-1,1-dimethyl-ethyl)imidazo[1,2-a]pyridin-3-yl]-N-cyclopropyl-2-(difluoromethoxy)-6-methoxy-benzamide], for which, for the setting “Homo sapiens, Monocyte”, the EC50 was in the range of 100 to 1000 nM.

For `CCC(C)(C#N)c1ccn2c(-c3cc(OC)c(C(=O)NC4CC4)c(OC(F)F)c3)cnc2c1` (centres unmarked) [Cpd 27, 4-[7-(1-cyano-1-methyl-propyl)imidazo[1,2-a]pyridin-3-yl]-N-cyclopropyl-2-(difluoromethoxy)-6-methoxy-benzamide], the EC50 (Homo sapiens, Monocyte) lay in the range of 100 to 1000 nM.

For `COc1cc(-c2cnn3cc(C4(C#N)CCOCC4)ccc23)cc(OC(F)F)c1C(=O)NC1CC1` [Cpd 237, 4-[6-(4-cyanotetrahydropyran-4-yl)pyrazolo[1,5-a]pyridin-3-yl]-N-cyclopropyl-2-(difluoromethoxy)-6-methoxy-benzamide], the 50% effective concentration (EC50) (Homo sapiens, Monocyte) fell in the range of 100 to 1000 nM.

`COc1cc(-c2cnc3cc(C4(C#N)CCOCC4)ccn23)cc(OC(F)F)c1C(=O)NC1CC1` [Cpd 116, 4-[7-(4-cyanotetrahydropyran-4-yl)imidazo[1,2-a]pyridin-3-yl]-N-cyclopropyl-2-(difluoromethoxy)-6-methoxy-benzamide] yielded an EC50 (Homo sapiens, Monocyte) of 100 to 1000 nM.

As to `COc1cc(-c2cnc3cc(C(C)(C)CO)ccn23)cc(OC(F)F)c1C(=O)NC1CC1` [Cpd 150, N-cyclopropyl-2-(difluoromethoxy)-4-[7-(2-hydroxy-1,1-dimethyl-ethyl)imidazo[1,2-a]pyridin-3-yl]-6-methoxy-benzamide], the EC50 (Homo sapiens, Monocyte) was in the range of 100 to 1000 nM.

Turning to `COc1cc(-c2cnn3cc(C(C)(C)COS(C)(=O)=O)ccc23)cc(OC(F)F)c1C(=O)N[C@@H]1C[C@@H]1F` [Cpd 267, [2-[3-[3-(difluoromethoxy)-4-[[(1R,2S)-2-fluorocyclopropyl]carbamoyl]-5-methoxy-phenyl]pyrazolo[1,5-a]pyridin-6-yl]-2-methyl-propyl]methanesulfonate], under “Homo sapiens, Monocyte”, the EC50 fell in the range of 0.1 to 100 nM.
